Data reported in US12077503B2, “Substituted cyclic amides and their use as herbicides” (FMC CORPORATION, priority 2015, dated 2024).
Where two headings read alike, the source gives them in different places.

Tests used:
Format in all cases: in vivo
Kochia (Kochia scoparia) [1] = assay: Test A preemergence; conditions: Bassia scoparia, pre-emergence, 240 h; for pest or weed control at 125 g/ha: 125 g ai/ha; for pest or weed control at 500 g/ha: 500 g ai/ha
Procedure, shortened: (§1)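 Each rating is a visual injury score from 0 to 100 given about 10 d after treatment, judged against untreated controls kept alongside in the greenhouse. In loam soil–sand blend, seeds got a preemergence directed soil spray, while postemergence plants were 2 to 10 cm tall at spraying.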

[2] = system: ryegrass, Italian (Italian ryegrass, Lolium multiflorum); assay: Test A preemergence; conditions: Lolium multiflorum, pre-emergence, 240 h; for pest or weed control at 125 g/ha: 125 g ai/ha; for pest or weed control at 500 g/ha: 500 g ai/ha
Procedure, shortened: as §1

[3] = system: barnyardgrass (Echinochloa crus-galli); assay: Test A preemergence; conditions: Echinochloa crus-galli, pre-emergence, 240 h; for pest or weed control at 125 g/ha: 125 g ai/ha; for pest or weed control at 500 g/ha: 500 g ai/ha
Procedure, shortened: as §1

[4] = system: pigweed (Amaranthus retroflexus); assay: Test A preemergence; conditions: Amaranthus retroflexus, pre-emergence, 240 h; for pest or weed control at 125 g/ha: 125 g ai/ha; for pest or weed control at 500 g/ha: 500 g ai/ha
[5] = system: ragweed (common ragweed, Ambrosia elatior); assay: Test A preemergence; conditions: Ambrosia artemisiifolia, pre-emergence, 240 h; for pest or weed control at 125 g/ha: 125 g ai/ha; for pest or weed control at 500 g/ha: 500 g ai/ha
Procedure, shortened: as §1

corn (Zea mays) = assay: Test A postemergence; conditions: Zea mays, post-emergence, 240 h, postemergence; for plant injury at 125 g/ha: 125 g ai/ha
Procedure, shortened: as §1

[6] = system: blackgrass (Alopecurus myosuroides); assay: Test A postemergence; conditions: Alopecurus myosuroides, post-emergence, 240 h, postemergence; for pest or weed control at 125 g/ha: 125 g ai/ha
Procedure, shortened: as §1

Kochia (Kochia scoparia) [7] = assay: Test A postemergence; conditions: Bassia scoparia, post-emergence, 240 h, postemergence; for pest or weed control at 125 g/ha: 125 g ai/ha
Procedure, shortened: as §1

[8] = system: ryegrass, Italian (Italian ryegrass, Lolium multiflorum); assay: Test A postemergence; conditions: Lolium multiflorum, post-emergence, 240 h, 125 g ai/ha, postemergence
Procedure, shortened: as §1

[9] = system: wheat (Triticum aestivum); assay: Test A postemergence; conditions: Triticum aestivum, post-emergence, 240 h, 125 g ai/ha, postemergence
Procedure, shortened: as §1

[10] = system: barnyardgrass (Echinochloa crus-galli); assay: Test A postemergence; conditions: Echinochloa crus-galli, post-emergence, 240 h, postemergence; for pest or weed control at 125 g/ha: 125 g ai/ha
Procedure, shortened: as §1

[11] = system: pigweed (Amaranthus retroflexus); assay: Test A postemergence; conditions: Amaranthus retroflexus, post-emergence, 240 h, 125 g ai/ha, postemergence
Procedure, shortened: as §1

[12] = system: Galium (catchweed bedstraw, Galium aparine); assay: Test A postemergence; conditions: Galium, post-emergence, 240 h, postemergence; for pest or weed control at 125 g/ha: 125 g ai/ha
Procedure, shortened: as §1

[13] = system: ragweed (common ragweed, Ambrosia elatior); assay: Test A postemergence; conditions: Ambrosia artemisiifolia, post-emergence, 240 h, 125 g ai/ha, postemergence
Procedure, shortened: as §1

[14] = system: giant foxtail (Setaria faberii); assay: Test A postemergence; conditions: Setaria faberi, post-emergence, 240 h, postemergence; for pest or weed control at 125 g/ha: 125 g ai/ha
Procedure, shortened: as §1

SMILES: CN1C[C@H](c2cc(F)c(F)c(F)c2)[C@@H](C(=O)Nc2cccc(F)c2F)C1=O [Compound 879]
- pest or weed control at 125 g/ha (Kochia (Kochia scoparia) [1]; preemergence, 0 to 100 scale where 0 is no effect and 100 is complete control, read-out: Kochia plant response rating): 80%
- pest or weed control at 500 g/ha (Kochia (Kochia scoparia) [1]; Preemergence, visual injury vs untreated controls after approximately 10 d, read-out: Kochia plant response rating (0 to 100 scale where 0 is no effect and 100 is complete control)): 90%
- pest or weed control at 125 g/ha ([2]; preemergence, 0 to 100 scale where 0 is no effect and 100 is complete control, read-out: Ryegrass, Italian plant response rating): 60%
- pest or weed control at 500 g/ha ([2]; Preemergence, visual injury vs untreated controls after approximately 10 d, read-out: Ryegrass, Italian plant response rating (0 to 100 scale where 0 is no effect and 100 is complete control)): 90%
- pest or weed control at 125 g/ha ([3]; preemergence, 0 to 100 scale where 0 is no effect and 100 is complete control, read-out: Barnyardgrass plant response rating): 100%
- pest or weed control at 500 g/ha ([3]; Preemergence, visual injury vs untreated controls after approximately 10 d, read-out: Barnyardgrass plant response rating (0 to 100 scale where 0 is no effect and 100 is complete control)): 100%
- pest or weed control at 125 g/ha ([4]; preemergence, 0 to 100 scale where 0 is no effect and 100 is complete control, read-out: Pigweed plant response rating): 70%
- pest or weed control at 500 g/ha ([4]; Preemergence, visual injury vs untreated controls after approximately 10 d, read-out: Pigweed plant response rating (0 to 100 scale where 0 is no effect and 100 is complete control)): 80%
- pest or weed control at 125 g/ha ([5]; preemergence, 0 to 100 scale where 0 is no effect and 100 is complete control, read-out: Ragweed plant response rating): 50%
- pest or weed control at 500 g/ha ([5]; Preemergence, visual injury vs untreated controls after approximately 10 d, read-out: Ragweed plant response rating (0 to 100 scale where 0 is no effect and 100 is complete control)): 90%
- plant injury at 125 g/ha (corn (Zea mays); visual injury rating after approximately 10 d, read-out: Corn plant response rating (0 to 100 scale, 0 no effect, 100 complete control)): 60%
- pest or weed control at 125 g/ha ([6]; visual injury rating after approximately 10 d, read-out: Blackgrass plant response rating (0 to 100 scale, 0 no effect, 100 complete control)): 70%
- pest or weed control at 125 g/ha (Kochia (Kochia scoparia) [7]; visual injury rating after approximately 10 d, read-out: Kochia plant response rating (0 to 100 scale, 0 no effect, 100 complete control)): 60%
- pest or weed control at 125 g/ha ([8]; visual injury rating after approximately 10 d, read-out: Ryegrass, Italian plant response rating (0 to 100 scale, 0 no effect, 100 complete control)): 70%
- plant injury at 125 g/ha ([9]; visual injury rating after approximately 10 d, read-out: Wheat plant response rating (0 to 100 scale, 0 no effect, 100 complete control)): 70%
- pest or weed control at 125 g/ha ([10]; visual injury rating after approximately 10 d, read-out: Barnyardgrass plant response rating (0 to 100 scale, 0 no effect, 100 complete control)): 100%
- pest or weed control at 125 g/ha ([11]; visual injury rating after approximately 10 d, read-out: Pigweed plant response rating (0 to 100 scale, 0 no effect, 100 complete control)): 20%
- pest or weed control at 125 g/ha ([12]; visual injury rating after approximately 10 d, read-out: Galium plant response rating (0 to 100 scale, 0 no effect, 100 complete control)): 50%
- pest or weed control at 125 g/ha ([13]; visual injury rating after approximately 10 d, read-out: Ragweed plant response rating (0 to 100 scale, 0 no effect, 100 complete control)): 20%
- pest or weed control at 125 g/ha ([14]; visual injury rating after approximately 10 d, read-out: Foxtail, Giant plant response rating (0 to 100 scale, 0 no effect, 100 complete control)): 80%

SMILES: O=C(Nc1cccc(F)c1F)[C@H]1C(=S)NC[C@@H]1c1ccc(C(F)(F)F)cc1 (racemic) [Compound 1048]
- pest or weed control at 125 g/ha (Kochia (Kochia scoparia) [1]; Preemergence, visual injury rating after approximately 10 d, read-out: Kochia plant response rating (0 to 100 scale, 0 is no effect, 100 is complete control)): 90%
- pest or weed control at 500 g/ha (Kochia (Kochia scoparia) [1]; preemergence, visual injury rating about 10 d after treatment, 0 to 100 scale (0 no effect, 100 complete control), read-out: Kochia plant response rating): 90%
- pest or weed control at 125 g/ha ([2]; Preemergence, visual injury rating after approximately 10 d, read-out: Ryegrass, Italian plant response rating (0 to 100 scale, 0 is no effect, 100 is complete control)): 20%
- pest or weed control at 500 g/ha ([2]; preemergence, visual injury rating about 10 d after treatment, 0 to 100 scale (0 no effect, 100 complete control), read-out: Ryegrass, Italian plant response rating): 40%
- pest or weed control at 125 g/ha ([3]; Preemergence, visual injury rating after approximately 10 d, read-out: Barnyardgrass plant response rating (0 to 100 scale, 0 is no effect, 100 is complete control)): 90%
- pest or weed control at 500 g/ha ([3]; preemergence, visual injury rating about 10 d after treatment, 0 to 100 scale (0 no effect, 100 complete control), read-out: Barnyardgrass plant response rating): 90%
- pest or weed control at 125 g/ha ([4]; Preemergence, visual injury rating after approximately 10 d, read-out: Pigweed plant response rating (0 to 100 scale, 0 is no effect, 100 is complete control)): 80%
- pest or weed control at 500 g/ha ([4]; preemergence, visual injury rating about 10 d after treatment, 0 to 100 scale (0 no effect, 100 complete control), read-out: Pigweed plant response rating): 90%
- pest or weed control at 125 g/ha ([5]; Preemergence, visual injury rating after approximately 10 d, read-out: Ragweed plant response rating (0 to 100 scale, 0 is no effect, 100 is complete control)): 50%
- pest or weed control at 500 g/ha ([5]; preemergence, visual injury rating about 10 d after treatment, 0 to 100 scale (0 no effect, 100 complete control), read-out: Ragweed plant response rating): 80%
- plant injury at 125 g/ha (corn (Zea mays); visual injury on 0 to 100 scale (0 no effect, 100 complete control), approx. 10 d, read-out: Corn plant response rating): 20%
- Corn plant response rating (crop injury, 0 = no effect, 100 = complete kill) at 500 g/ha (corn (Zea mays); 500 g ai/ha, visual injury, 0 to 100 scale (0 no effect, 100 complete control), approx. 10 d): 40%
- pest or weed control at 125 g/ha ([6]; visual injury on 0 to 100 scale (0 no effect, 100 complete control), approx. 10 d, read-out: Blackgrass plant response rating): 20%
- pest or weed control at 500 g/ha ([6]; 500 g ai/ha, visual injury, 0 to 100 scale (0 no effect, 100 complete control), approx. 10 d, read-out: Plant response rating, Blackgrass): 30%
- pest or weed control at 125 g/ha (Kochia (Kochia scoparia) [7]; visual injury on 0 to 100 scale (0 no effect, 100 complete control), approx. 10 d, read-out: Kochia plant response rating): 30%
- pest or weed control at 500 g/ha (Kochia (Kochia scoparia) [7]; 500 g ai/ha, visual injury, 0 to 100 scale (0 no effect, 100 complete control), approx. 10 d, read-out: Plant response rating, Kochia): 60%
- pest or weed control at 125 g/ha ([8]; visual injury on 0 to 100 scale (0 no effect, 100 complete control), approx. 10 d, read-out: Ryegrass, Italian plant response rating): 30%
- plant injury at 125 g/ha ([9]; visual injury on 0 to 100 scale (0 no effect, 100 complete control), approx. 10 d, read-out: Wheat plant response rating): 20%
- pest or weed control at 125 g/ha ([10]; visual injury on 0 to 100 scale (0 no effect, 100 complete control), approx. 10 d, read-out: Barnyardgrass plant response rating): 50%
- pest or weed control at 500 g/ha ([10]; 500 g ai/ha, visual injury, 0 to 100 scale (0 no effect, 100 complete control), approx. 10 d, read-out: Plant response rating, Barnyardgrass): 80%
- pest or weed control at 125 g/ha ([11]; visual injury on 0 to 100 scale (0 no effect, 100 complete control), approx. 10 d, read-out: Pigweed plant response rating): 30%
- pest or weed control at 125 g/ha ([12]; visual injury on 0 to 100 scale (0 no effect, 100 complete control), approx. 10 d, read-out: Galium plant response rating): 0%
- pest or weed control at 500 g/ha ([12]; 500 g ai/ha, visual injury, 0 to 100 scale (0 no effect, 100 complete control), approx. 10 d, read-out: Plant response rating, Galium): 60%
- pest or weed control at 125 g/ha ([13]; visual injury on 0 to 100 scale (0 no effect, 100 complete control), approx. 10 d, read-out: Ragweed plant response rating): 0%
- pest or weed control at 125 g/ha ([14]; visual injury on 0 to 100 scale (0 no effect, 100 complete control), approx. 10 d, read-out: Foxtail, Giant plant response rating): 60%
- pest or weed control at 500 g/ha ([14]; 500 g ai/ha, visual injury, 0 to 100 scale (0 no effect, 100 complete control), approx. 10 d, read-out: Plant response rating, Foxtail, Giant): 80%
